Assay [1] deals with T1, potassium ion channel hERG (human Ether-á-go-go-Related Gene) (Homo sapiens, UniProt Q12809).
T1 construct: expressed in transfected cells; host or cells: Chinese hamster ovary K1 (CHO)
Put plainly: Assay 5 - hERG assay (SyncroPatch 384PE patch clamp, CHO cells). It is filed as cell-based. Particulars: geometric mean; CHO cells over-expressing hERG; read-out: Assay 5 (hERG Hu CHO IF EPh CR-Syncro) GMean IC50. On the procedure:
Assay 5—hERG Assay (Human Ether-á-go-go-Related Gene)
This assay (human Ether-á-go-go-Related Gene) measures activity of the compounds at the potassium ion channel hERG (human Ether-á-go-go-Related Gene).
Experiments were performed on the SyncroPatch 384PE high throughput patch clamp platform at room temperature and medium resistance chips with 4 patch holes per site. Chinese hamster ovary K1 (CHO) cell lines over-expressing the ion channel of choice (hERG) were used in assay-ready format and kept in liquid nitrogen or were used from live culture. Cells were either thawed and diluted in HBSS or were detached from flasks and resuspended in HBSS. HBSS comprised 140 mM NaCl, 4 mM KCl, 10 mM HEPES and 5 mM Glucose (pH7.4). The internal patch clamp solution was KF 120 mM, KCl 20 mM, HEPES 10 mM, EGTA 10 mM, and 25 PM Escin (pH 7.2). After the sealing process was complete, the external solution was exchanged for external patch clamp solution comprising NaCl 80 mM, KCl 4 mM, HEPES 10 mM, CaCl2 2 mM, MgCl2 1 mM, glucose 5 mM, and NMDG 60 mM (pH 7.4). All solutions were stored at room temperature, except Escin, which was stored at 4° C. All test compounds were dispensed in greiner-bio 384 well plates and tested in a 6 point cumulative assay (final DMSO concentration 0.33%). Only wells that passed previously agreed acceptance criteria for this platform were used in this analysis (30 MegaOhm seal resistance, Z prime >0.4 and current size >0.2 nA).

Assay [2] addresses GSK3β (Glycogen synthase kinase-3 beta) (Homo sapiens, UniProt P49841). Put plainly: Assay 6 - GSK3β assay (ThermoFisher Z-Lyte). The assay is classed as biochemical. Particulars: geometric mean; ATP Conc: 10 μM; read-out: Assay 6 (GSK3β FRET-Z-Lyte CR) GMean IC50 (μM) ATP Conc: 10. Here is the method: Assay 6—GSK3β Assay (ThermoFisher Assay)
This assay measures the activity of the compounds at GSK3β (Glycogen synthase kinase-3 beta).
The test compounds were screened in 1% DMSO (final) in the well. For 10 point titrations, 3-fold serial dilutions are conducted from the starting concentration of 10 μM.
Bar-coded Corning, low volume NBS, black 384-well plate • 1. 2.5 μL—4× Test Compound or 100 nL 100× plus 2.4 μL kinase buffer • 2. 5 μL—2× Peptide/Kinase Mixture • 3. 2.5 μL—4×ATP Solution • 4. 30-second plate shake • 5. 60-minute Kinase Reaction incubation at room temperature • 6. 5 μL—Development Reagent Solution • 7. 30-second plate shake • 8. 60-minute Development Reaction incubation at room temperature • 9. Read on fluorescence plate reader and analyse the data
In step 2, the 2×GSK3β (GSK3 beta)/Ser/Thr (Glycogen synthase kinase-3 beta/Serine/Threonine) 09 mixture is prepared in 50 mM HEPES (4-(2-hydroxyethyl)-1-piperazineethanesulfonic acid) pH 7.5, 0.01% BRIJ-35, 10 mM MgCl2, 1 mM EGTA (egtazic acid). The final 10 μL Kinase Reaction consists of 0.22-0.92 ng GSK3β (GSK3 beta) and 2 μM Ser/Thr 09 in 50 mM HEPES pH 7.5, 0.01% BRIJ-35, 10 mM MgCl2, 1 mM EGTA.
In step 3 the ATP Solution is diluted to a 4× working concentration in Kinase Buffer (50 mM HEPES pH 7.5, 0.01% BRIJ-35, 10 mM MgCl2, 1 mM EGTA).
In Step 6 the Development Reagent is diluted 1:512 in Development Buffer (10× Novel PKC Lipid Mix: 2 mg/mL Phosphatidyl Serine, 0.2 mg/mL DAG in 20 mM HEPES, pH 7.4, 0.3% CHAPS).
SelectScreen® Kinase Profiling Service uses XLfit from IDBS. The dose response curve is curve fit to model number 205 (sigmoidal dose-response model).

The target in another assay is PCSK9 (Homo sapiens, UniProt Q8NBP7, G670E/V474I). Put plainly: biochemical.
PCSK9, sequence (Q8NBP7 with tags, fused parts or gaps V474I/G670E): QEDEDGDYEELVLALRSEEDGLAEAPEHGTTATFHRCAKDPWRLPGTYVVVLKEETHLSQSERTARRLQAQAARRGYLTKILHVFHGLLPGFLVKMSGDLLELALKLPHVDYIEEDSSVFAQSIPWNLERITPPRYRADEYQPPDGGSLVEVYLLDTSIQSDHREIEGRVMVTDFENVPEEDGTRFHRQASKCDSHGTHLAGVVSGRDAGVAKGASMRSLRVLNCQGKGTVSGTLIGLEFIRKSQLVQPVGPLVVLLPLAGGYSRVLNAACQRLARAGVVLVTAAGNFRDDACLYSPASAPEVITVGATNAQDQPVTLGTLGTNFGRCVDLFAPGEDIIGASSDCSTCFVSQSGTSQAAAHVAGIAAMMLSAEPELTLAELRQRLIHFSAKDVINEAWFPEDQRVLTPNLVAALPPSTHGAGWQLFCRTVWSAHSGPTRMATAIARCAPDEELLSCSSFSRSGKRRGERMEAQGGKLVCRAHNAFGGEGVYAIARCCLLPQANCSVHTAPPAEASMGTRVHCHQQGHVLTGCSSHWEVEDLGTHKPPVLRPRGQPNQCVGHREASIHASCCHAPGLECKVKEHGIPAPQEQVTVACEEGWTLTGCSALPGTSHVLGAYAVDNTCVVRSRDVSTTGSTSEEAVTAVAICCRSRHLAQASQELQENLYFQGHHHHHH

This is an account of results in patent US20240217951A1, “PCSK9 INHIBITORS AND METHODS OF USE THEREOF” (AstraZeneca AB, priority 2022, published 2024).

T1 sequence (Q12809 whole entry): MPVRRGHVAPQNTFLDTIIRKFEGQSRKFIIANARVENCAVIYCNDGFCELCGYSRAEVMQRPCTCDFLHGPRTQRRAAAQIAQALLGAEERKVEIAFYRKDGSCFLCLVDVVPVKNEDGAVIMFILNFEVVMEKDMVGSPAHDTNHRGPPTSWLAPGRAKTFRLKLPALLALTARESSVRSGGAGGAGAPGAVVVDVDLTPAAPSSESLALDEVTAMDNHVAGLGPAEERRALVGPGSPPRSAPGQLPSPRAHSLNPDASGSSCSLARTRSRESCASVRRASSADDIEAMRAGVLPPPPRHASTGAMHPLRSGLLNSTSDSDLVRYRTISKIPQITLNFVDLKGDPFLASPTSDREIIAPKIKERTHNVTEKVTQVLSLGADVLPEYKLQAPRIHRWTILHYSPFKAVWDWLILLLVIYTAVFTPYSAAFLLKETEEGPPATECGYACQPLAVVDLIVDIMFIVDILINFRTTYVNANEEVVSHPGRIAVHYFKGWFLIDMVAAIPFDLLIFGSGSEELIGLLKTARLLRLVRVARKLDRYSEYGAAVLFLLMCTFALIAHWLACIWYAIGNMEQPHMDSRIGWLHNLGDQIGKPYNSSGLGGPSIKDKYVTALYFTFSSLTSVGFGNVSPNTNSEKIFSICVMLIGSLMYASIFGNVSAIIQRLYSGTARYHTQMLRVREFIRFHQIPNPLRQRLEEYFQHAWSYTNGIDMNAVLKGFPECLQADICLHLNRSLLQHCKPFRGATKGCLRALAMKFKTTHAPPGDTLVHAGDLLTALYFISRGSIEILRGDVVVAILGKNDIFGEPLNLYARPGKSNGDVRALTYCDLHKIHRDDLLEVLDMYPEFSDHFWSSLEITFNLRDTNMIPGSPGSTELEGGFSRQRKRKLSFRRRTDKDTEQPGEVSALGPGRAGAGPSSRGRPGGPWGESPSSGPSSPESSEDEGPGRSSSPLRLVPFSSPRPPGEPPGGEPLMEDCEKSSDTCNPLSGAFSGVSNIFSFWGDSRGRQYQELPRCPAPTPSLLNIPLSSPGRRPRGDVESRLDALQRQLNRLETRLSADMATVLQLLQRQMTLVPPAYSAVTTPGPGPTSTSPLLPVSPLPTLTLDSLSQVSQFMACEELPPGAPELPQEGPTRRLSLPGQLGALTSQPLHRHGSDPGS
GSK3β (Glycogen synthase kinase-3 beta), sequence (P49841 whole entry): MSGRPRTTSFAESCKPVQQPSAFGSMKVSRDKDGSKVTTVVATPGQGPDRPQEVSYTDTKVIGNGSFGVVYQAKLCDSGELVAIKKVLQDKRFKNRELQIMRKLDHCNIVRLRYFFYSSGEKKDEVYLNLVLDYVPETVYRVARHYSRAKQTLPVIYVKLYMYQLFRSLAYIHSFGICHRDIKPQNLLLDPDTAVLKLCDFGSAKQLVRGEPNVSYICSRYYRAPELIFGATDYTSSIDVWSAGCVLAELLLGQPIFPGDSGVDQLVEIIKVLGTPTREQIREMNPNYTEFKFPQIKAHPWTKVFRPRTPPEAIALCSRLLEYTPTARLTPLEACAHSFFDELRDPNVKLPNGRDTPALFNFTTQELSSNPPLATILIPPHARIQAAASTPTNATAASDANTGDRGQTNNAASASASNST

Usually IC50 stands for the midpoint of a concentration-inhibition curve. `COc1cccn(-c2ccc(N[C@H]3CC[C@H](Nc4cnc(C)cn4)C3)nc2)c1=O` (single isomer, unassigned) [Example 171]: the IC50 in assay [1] is greater than 40.1 µM; in assay [2] it was 2.1 µM; on PCSK9 it was 0.602 µM.
In the same order, the values of `CNC(=O)c1cnc(N[C@H]2CC[C@H](Nc3ccc(-n4cccc(OC)c4=O)cn3)C2)cn1` (stereo in doubt) [Example 150, 5-(((1S,3S)-3-((3-Methoxy-2-oxo-2H-[1,3′-bipyridin]-6′-yl)amino)cyclopentyl)amino)-N-methylpyrazine-2-carboxamide] are greater than 40.1 µM, greater than 10 µM and 8.7 µM.
For the compound `Cn1ccc2nc(N[C@H]3CC[C@H](Nc4ccc(-n5ccccc5=O)cn4)C3)cnc21` [Example 7, 6′-(((1S,3S)-3-((5-Methyl-5H-pyrrolo[2,3-b]pyrazin-2-yl)amino)cyclopentyl)amino)-2H-[1,3′-bipyridin]-2-one], the IC50 was greater than 40 µM in assay [1], greater than 10 µM in assay [2] and 3.5 µM at PCSK9.
In the case of `Cn1ccc2ncc(N[C@H]3CC[C@H](Nc4ccc(-n5ccccc5=O)cn4)C3)nc21` [Example 8, 6′-(((1S,3S)-3-((5-Methyl-5H-pyrrolo[2,3-b]pyrazin-3-yl)amino)cyclopentyl)amino)-2H-[1,3′-bipyridin]-2-one], the IC50 was greater than 40 µM in assay [1], greater than 10 µM in assay [2] and 0.257 µM on PCSK9.
Take `Cn1ncc2ncc(N[C@H]3CC[C@H](Nc4ccc(-n5ccccc5=O)cn4)C3)nc21` [Example 9, 6′-(((1S,3S)-3-((1-Methyl-1H-pyrazolo[3,4-b]pyrazin-6-yl)amino)cyclopentyl)amino)-2H-[1,3′-bipyridin]-2-one]: the IC50 was greater than 40 µM in assay [1], 5.6 µM in assay [2] and 0.677 µM at PCSK9.
For the compound `COc1ccc(=O)n(-c2ccc(N[C@H]3CC[C@H](Nc4cnc(C)c(C)n4)C3)nc2)c1` [Example 15, 6′-(((1S,3S)-3-((5,6-Dimethylpyrazin-2-yl)amino)cyclopentyl)amino)-5-methoxy-2H-[1,3′-bipyridin]-2-one], the IC50 was greater than 40 µM in assay [1], 0.874 µM in assay [2] and 0.118 µM at PCSK9.
In the case of `Cc1ncc(N[C@H]2CC[C@H](Nc3ccc(N4CC(=O)N(C)C4=O)cn3)C2)nc1C` [Example 16, 1-(6-(((1S,3S)-3-((5,6-Dimethylpyrazin-2-yl)amino)cyclopentyl)amino)pyridin-3-yl)-3-methylimidazolidine-2,4-dione], the figures for the half-inhibitory concentration (IC50) (in assay [1]; in assay [2]; at PCSK9) were greater than 40 µM, greater than 10 µM and 0.103 µM, respectively.
For `Cc1ncc(N[C@H]2CC[C@H](Nc3ccc(-n4cc(Cl)ccc4=O)cn3)C2)nc1C` [Example 17, 5-Chloro-6′-(((1S,3S)-3-((5,6-dimethylpyrazin-2-yl)amino)cyclopentyl)amino)-2H-[1,3′-bipyridin]-2-one], the IC50 in assay [1] is greater than 40 µM; in assay [2], greater than 10 µM; on PCSK9, 0.053 µM.
In the same order, the values of `O=c1cccnn1-c1ccc(N[C@H]2CC[C@H](Nc3cnc(Cl)cn3)C2)nc1` [Example 25, 2-(6-(((1S,3S)-3-((5-Chloropyrazin-2-yl)amino)cyclopentyl)amino)pyridin-3-yl)pyridazin-3 (2H)-one] are greater than 40 µM, greater than 10 µM and 0.028 µM.
With `CN1C(=O)CN(c2ccc(N[C@H]3CC[C@H](Nc4cnc(Cl)cn4)C3)nc2)C1=O` [Example 26, 1-(6-(((1S,3S)-3-((5-Chloropyrazin-2-yl)amino)cyclopentyl)amino)pyridin-3-yl)-3-methylimidazolidine-2,4-dione], the results for the IC50 (in assay [1]; in assay [2]; against PCSK9) were 14.3 µM, greater than 10 µM and 0.0243 µM, respectively.
Regarding `COc1ccc(=O)n(-c2ccc(N[C@H]3CC[C@H](Nc4cnc(Cl)cn4)C3)nc2)c1` [Example 28, 6′-(((1S,3S)-3-((5-Chloropyrazin-2-yl)amino)cyclopentyl)amino)-5-methoxy-2H-[1,3′-bipyridin]-2-one], the IC50 in assay [1] came out at 25 µM; in assay [2], 0.16 µM; against PCSK9, 0.043 µM.
In the same order, the values of `O=c1ccc(Cl)cn1-c1ccc(N[C@H]2CC[C@H](Nc3cnc(Cl)cn3)C2)nc1` [Example 29, 5-Chloro-6′-(((1S,3S)-3-((5-chloropyrazin-2-yl)amino)cyclopentyl)amino)-2H-[1,3′-bipyridin]-2-one] are 11.1 µM, greater than 10 µM and 0.014 µM.
Turning to `Cc1ccc(=O)n(-c2ccc(N[C@H]3CC[C@H](Nc4cnc(Cl)cn4)C3)nc2)c1` [Example 30, 6′-(((1S,3S)-3-((5-Chloropyrazin-2-yl)amino)cyclopentyl)amino)-5-methyl-2H-[1,3′-bipyridin]-2-one], the IC50 in assay [1] is 32.2 µM; in assay [2], greater than 10 µM; on PCSK9, 0.027 µM.
Turning to `COc1ccc(=O)n(-c2ccc(N[C@H]3CC[C@H](Nc4cnc(C)cn4)C3)nc2)c1` [Example 40, 5-Methoxy-6′-(((1S,3S)-3-((5-methylpyrazin-2-yl)amino)cyclopentyl)amino)-2H-[1,3′-bipyridin]-2-one], the IC50 came to 35.5 µM in assay [1], 0.192 µM in assay [2] and 0.067 µM against PCSK9.
For the compound `Cc1cnc(N[C@H]2CC[C@H](Nc3ccc(N4C(=O)CN(C)C4=O)cn3)C2)cn1` [Example 41, 1-Methyl-3-(6-(((1S,3S)-3-((5-methylpyrazin-2-yl)amino)cyclopentyl)amino)pyridin-3-yl)imidazolidine-2,4-dione], the IC50 in assay [1] is greater than 40 µM; in assay [2], greater than 10 µM; against PCSK9 it was 0.057 µM.
On to `Cc1ncc(N[C@H]2CC[C@H](Nc3ccc(-n4cc(C#N)ccc4=O)cn3)C2)nc1C` [Example 48, 6′-(((1S,3S)-3-((5,6-Dimethylpyrazin-2-yl)amino)cyclopentyl)amino)-2-oxo-2H-[1,3′-bipyridine]-5-carbonitrile], for which the IC50 in assay [1] is 18.4 µM; in assay [2], greater than 10 µM; against PCSK9, 0.113 µM.
Turning to `Cc1cnc(N[C@H]2CC[C@H](Nc3ccc(-n4cc(C#N)ccc4=O)cn3)C2)cn1` [Example 49, 6′-(((1S,3S)-3-((5-Methylpyrazin-2-yl)amino)cyclopentyl)amino)-2-oxo-2H-[1,3′-bipyridine]-5-carbonitrile], the results for the IC50 (in assay [1]; in assay [2]; on PCSK9) were greater than 40 µM, greater than 10 µM and 0.058 µM, respectively.
As to `COc1ccc(=O)n(-c2ccc(N[C@H]3CC[C@H](Nc4cnc(C5CC5)cn4)C3)nc2)c1` [Example 107, 6′-(((1S,3S)-3-((5-Cyclopropylpyrazin-2-yl)amino)cyclopentyl)amino)-5-methoxy-2H-[1,3′-bipyridin]-2-one], the IC50 came to 0.16 µM in assay [2] and 0.105 µM at PCSK9.
As for `Cc1cnc(N[C@H]2CC[C@H](Nc3ccc(-n4cccc(-c5cnn(C)c5)c4=O)cn3)C2)cn1` [Example 203, 3-(1-Methyl-1H-pyrazol-4-yl)-6′-(((1S,3S)-3-((5-methylpyrazin-2-yl)amino)cyclopentyl)amino)-2H-[1,3′-bipyridin]-2-one], the values for the IC50 in assay [1] and in assay [2] were greater than 40.1 µM and greater than 10 µM, respectively.
